For test [1], the target named is T1, RORγ ligand binding domain (LBD) (Homo sapiens, UniProt P51449).
T1 construct: made in house; host or cells: E. coli BL-21 (BL3), vector pDEST15
T1 sequence (P51449 269-508 limits assumed): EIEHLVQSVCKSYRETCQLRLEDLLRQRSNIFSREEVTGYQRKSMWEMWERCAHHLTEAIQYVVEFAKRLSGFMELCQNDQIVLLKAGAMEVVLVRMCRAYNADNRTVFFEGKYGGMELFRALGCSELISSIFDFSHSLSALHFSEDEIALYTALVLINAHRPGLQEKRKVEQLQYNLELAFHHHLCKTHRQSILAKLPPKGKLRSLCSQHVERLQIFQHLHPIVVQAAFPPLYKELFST
Nature of the test: TR-FRET Activity Assay (ligand sensing, RORγ-LBD / coactivator peptide interaction, LANCE). Format: biochemical.

Another test concerns the target T2, RORγ (UniProt P51449).
T2 sequence (P51449 1-518): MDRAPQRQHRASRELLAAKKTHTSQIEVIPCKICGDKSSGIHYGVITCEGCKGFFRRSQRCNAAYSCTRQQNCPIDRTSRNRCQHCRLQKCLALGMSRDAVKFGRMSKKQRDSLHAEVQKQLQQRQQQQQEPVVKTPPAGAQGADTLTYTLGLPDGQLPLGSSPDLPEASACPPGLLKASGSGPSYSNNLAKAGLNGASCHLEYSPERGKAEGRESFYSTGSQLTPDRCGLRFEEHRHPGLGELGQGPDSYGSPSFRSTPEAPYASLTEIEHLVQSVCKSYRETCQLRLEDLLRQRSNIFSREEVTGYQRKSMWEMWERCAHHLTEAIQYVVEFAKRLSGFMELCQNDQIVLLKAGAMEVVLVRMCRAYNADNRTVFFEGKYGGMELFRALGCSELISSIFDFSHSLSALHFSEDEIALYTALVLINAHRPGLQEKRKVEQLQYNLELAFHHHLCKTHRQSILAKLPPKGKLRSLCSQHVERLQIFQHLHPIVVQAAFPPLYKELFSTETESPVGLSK
Nature of the test: RORγ Gal4 Reporter Gene Assay in 293T cells (firefly and renilla luciferase). The format is cell-based, human.

The mark [2] stands for this setting: first value of the cell FRET/FF/REN, TR-FRET activity assay, read-out: pIC50 (FRET) (converted).
[3] abbreviates: second value of the cell, Gal4 reporter gene assay in 293T cells, firefly luciferase.
The mark [4] stands for this setting: third value of the cell, Gal4 reporter gene assay in 293T cells, renilla normalised luciferase.

Consider 28 compounds from patent publication US9815851B2, “Pyrrolo carboxamides as modulators of orphan nuclear receptor RAR-related orphan receptor-gamma (RORγ, NR1F3) activity and for the treatment of chronic inflammatory and autoimmune diseases” (PHENEX PHARMACEUTICALS AG, priority 2011, dated 2017).

Where two headings read alike, the source gives them in different places.

`Cc1c(C(=O)NC2CCOCC2)cc(-c2ccc(-c3ccnn3C(C)C)c(C(C)(C)O)c2)n1CC1CCCCC1` [Example 27, 1-(Cyclohexylmethyl)-5-(3-(2-hydroxypropan-2-yl)-4-(1-isopropyl-1H-pyrazol-5-yl)phenyl)-2-methyl-N-(tetrahydro-2H-pyran-4-yl)-1H-pyrrole-3-carboxamide]: the IC50 in test [1] (setting [2]) is 2000 nM. Also, the “pIC50 (FF)” value against RORγ (setting [3]) was found to be 6.4. The “pIC50 (REN)” value against RORγ (setting [4]) is listed as 6.5.
Taken in the same sequence, the figures for `Cc1c(C(=O)NC2CCOCC2)cc(-c2ccc(S(=O)(=O)NC(C)(C)C)c(C(F)(F)F)c2)n1CC1(O)CCCCC1` [17/255] were 7940 nM, less than 4.7 and less than 4.7.
In the same order, the values of `Cc1c(C(=O)N[C@H]2C[C@H](C(=O)O)C2)c(Cl)c(-c2cc(C(C)(C)O)cc(C3(C)CC3)c2)n1CC1CCCCC1` [29/1] are 3160 nM, 6.8 and 6.8.
In the same order, the values of `Cc1c(C(=O)NCC(C)(C)C(=O)NCCCO)cc(-c2cc(C(C)(C)C)c3c(c2)C2(CCO3)CC2)n1CC1CCCCC1` [11/6] are 251 nM, 8.0 and 8.2.
With `Cc1c(C(=O)NC2CCOCC2)cc(-c2ccc(S(=O)(=O)NC(C)C)c(C(F)(F)F)c2)n1CC1CCCCC1` [17/112], the IC50 in test [1] (setting [2]) is 316 nM. Moreover, at RORγ (setting [3]), the “pIC50 (FF)” value is recorded as 7.4. In addition, on RORγ (setting [4]), the “pIC50 (REN)” value stood at 7.5.
For `Cc1c(C(=O)NCCC(C)(C)C(=O)O)cc(-c2cc(C(=O)NC(C)(C)C)cc(C3(C)CC3)c2)n1CC1CCCCC1` [17/340], the IC50 in test [1] (setting [2]) was 1580 nM. In addition, at RORγ (setting [3]), the “pIC50 (FF)” value was 7.1. Moreover, the “pIC50 (REN)” value at RORγ (setting [4]) is 7.1.
As to `Cc1c(C(=O)NCC(C)(C)O)cc(-c2cc(C(C)(C)C)c3c(c2)C(C)(C)CO3)n1CC1CCCCC1` [17/86], the IC50 in test [1] (setting [2]) was 316 nM. In addition, on RORγ (setting [3]), the “pIC50 (FF)” value turned out to be 7.1. Further, the “pIC50 (REN)” value against RORγ (setting [4]) is 7.1.
As for `Cc1c(C(=O)NCC(C)(C)O)cc(-c2cc(C(C)(C)C)cc(C(=O)NC(C)(C)C)c2Cl)n1CC1CCCCC1` [17/367], the IC50 in test [1] (setting [2]) is 5010 nM. The “pIC50 (FF)” value against RORγ (setting [3]) turned out to be 6.4. Besides, on RORγ (setting [4]), the “pIC50 (REN)” value is given as 6.1.
`Cc1c(C(=O)NC2CCOCC2)cc(-c2cc(C(F)(F)F)c(S(=O)(=O)NC(C)(C)C)cc2F)n1CC1CCCCC1` [17/230]: the IC50 in test [1] (setting [2]) was 251 nM. The “pIC50 (FF)” value on RORγ (setting [3]) turned out to be 7.5. Besides, at RORγ (setting [4]), the “pIC50 (REN)” value was determined as 7.6.
Regarding `Cc1c(C(=O)NCCOCCO)cc(-c2cc(C(C)(C)C)cc(C(C)(C)C)c2)n1CC1CCCCC1` [1/63], in test [1], the IC50 is 631 nM. At RORγ, the “pIC50 (FF)” value is recorded as 6.2/6.7/6.7 and the “pIC50 (REN)” value is listed as 6.2/6.7/6.7.
Turning to `Cc1c(C(=O)N2CC3(C2)NC(=O)CNC3=O)cc(-c2ccc(S(=O)(=O)NC(C)(C)C)c(C(F)(F)F)c2)n1CC1CCCCC1` [17/294], the IC50 in test [1] (setting [2]) is 3160 nM. Moreover, the “pIC50 (FF)” value on RORγ (setting [3]) is given as less than 4.7. Further, the “pIC50 (REN)” value at RORγ (setting [4]) is reported as less than 4.7.
For `Cc1c(C(=O)N[C@H]2C[C@H](C(=O)O)C2)cc(-c2ccc(S(=O)(=O)NC(C)(C)C)c(C(F)(F)F)c2)n1CC1CCCCC1` [17/220], in test [1] (setting [2]), the IC50 is 316 nM. For the same compound, the “pIC50 (FF)” value against RORγ (setting [3]) is given as 6.6. On RORγ (setting [4]), the “pIC50 (REN)” value was 6.6.
Take `CC(C)(C)c1cc(-c2cc(C(=O)N[C@H]3C[C@H](C(=O)O)C3)c(F)n2CC2CCCCC2)cc(C2(C)CC2)c1` [20/3]: the IC50 in test [1] (setting [2]) is 631 nM. In addition, the “pIC50 (FF)” value against RORγ (setting [3]) is listed as 7.3. Further, the “pIC50 (REN)” value at RORγ (setting [4]) is recorded as 7.4.
Taken in the same sequence, the figures for `Cc1c(C(=O)NC2CC23CCOCC3)cc(-c2ccc(S(=O)(=O)NC(C)(C)C)c(C(C)(C)C)c2)n1CC1CCCCC1` (stereo not drawn) [17/207] were 501 nM, 7.9 and 8.0.
As to `Cc1c(C(=O)N(C)CC2(O)CCOCC2)cc(-c2cc(C(C)(C)C)c3c(c2)C2(CCO3)CC2)n1CC1CCCCC1` [17/39], the IC50 in test [1] was 398 nM. Moreover, at RORγ, the “pIC50 (FF)” value is 6.4/6.9/6.8 and the “pIC50 (REN)” value was 6.4/6.9/6.8.
Consider `CC(C)(C)NS(=O)(=O)c1ccc(-c2cc(C(=O)NCCC(C)(C)C(=O)O)c(F)n2CC2CCCCC2)c2ccccc12` [20/9], for which the IC50 in test [1] (setting [2]) is 1260 nM. At RORγ (setting [3]), the “pIC50 (FF)” value was 7.8. Moreover, the “pIC50 (REN)” value against RORγ (setting [4]) is 7.6.
Taken in the same sequence, the figures for `Cc1c(C(=O)NCCc2nnn[nH]2)cc(-c2cc(C(C)(C)C)cc(C3(C)CC3)c2)n1CC1CCCCC1` [17/70] were 1260 nM, 7.9 and 7.9.
Consider `Cc1c(C(=O)N[C@H]2CC[C@@H](C(=O)O)CC2)cc(-c2cc(C(C)(C)C)c3c(c2)C2(CCO3)CC2)n1CC1CCCCC1` [17/58], for which the IC50 in test [1] (setting [2]) was 1580 nM. The “pIC50 (FF)” value at RORγ (setting [3]) is listed as 6.7. The “pIC50 (REN)” value on RORγ (setting [4]) came to 6.7.
Turning to `Cc1c(C(=O)N[C@H]2CCCOC2)cc(-c2ccc(S(=O)(=O)NC(C)(C)C)c(C(F)(F)F)c2)n1CC1CCCCC1` [17/139], the IC50 in test [1] (setting [2]) was 158 nM. For the same compound, the “pIC50 (FF)” value against RORγ (setting [3]) was found to be 7.2. Further, the “pIC50 (REN)” value against RORγ (setting [4]) is 7.4.
Taken in the same sequence, the figures for `Cc1c(C(=O)NC2CCOCC2)cc(-c2ccc(S(=O)(=O)NC(C)(C)C)cc2)n1CC1CCCCC1` [17/237] were 1260 nM, 6.5 and 6.5.
Taken in the same sequence, the figures for `Cc1c(C(=O)NC2CCOCC2)cc(-c2ccc(S(=O)(=O)NC(C)(C)C)c(C(F)(F)F)c2)n1C1CC12CCCC2` (stereo not drawn) [17/175] were 794 nM, 6.6 and 6.7.
Taken in the same sequence, the figures for `Cc1c(C(=O)NCC(C)(C)C(=O)O)cc(-c2cc(C(C)(C)C)c3c(c2)C(C)(C)C(=O)N3C)n1CC1CCCCC1` [17/49] were 2000 nM, 7.0 and 7.1.
Turning to `Cc1c(C(=O)NCC2(CO)COC2)cc(-c2cc(C(C)(C)C)c3c(c2)C2(CCO3)CC2)n1CC1CCCCC1` [17/8], the IC50 in test [1] (setting [2]) is 794 nM. For the same compound, on RORγ (setting [3]), the “pIC50 (FF)” value is given as 7.2. Further, the “pIC50 (REN)” value on RORγ (setting [4]) amounted to 7.2.
With `Cc1c(C(=O)NCCc2noc(=O)[nH]2)cc(-c2ccc(S(=O)(=O)NC(C)(C)C)c(C(F)(F)F)c2)n1CC1CCCCC1` [17/332], the IC50 in test [1] (setting [2]) was 200 nM. Also, the “pIC50 (FF)” value against RORγ (setting [3]) is reported as 6.4. Moreover, on RORγ (setting [4]), the “pIC50 (REN)” value came out at 6.4.
With `Cc1c(C(=O)NCC2CCOCC2)cc(-c2cc(C(C)(C)C)c3c(c2)C2(CCO3)CC2)n1CC1CCCCC1` [1/94], the IC50 in test [1] (setting [2]) was 501 nM. The “pIC50 (FF)” value against RORγ (setting [3]) came to 7.4. In addition, the “pIC50 (REN)” value at RORγ (setting [4]) stood at 7.3.
With `Cc1c(C(=O)N[C@H]2C[C@H](C(=O)O)C2)cc(-c2cc(C(=O)N[C@H](C)C(F)(F)F)cc(C3(C)CC3)c2)n1CC1CCCCC1` [17/359], the IC50 in test [1] (setting [2]) is 3160 nM. Also, the “pIC50 (FF)” value against RORγ (setting [3]) is given as 7.4. The “pIC50 (REN)” value against RORγ (setting [4]) is 7.4.
In turn, `Cc1c(C(=O)NC2CCS(=O)(=O)CC2)cc(-c2ccc(S(=O)(=O)NC(C)(C)C)c(C(C)(C)C)c2)n1CC1CCCCC1` [17/92] gave an IC50 in test [1] of 1000 nM. For the same compound, at RORγ, the “pIC50 (FF)” value is 6.0/7.3/7.1 and the “pIC50 (REN)” value is 6.0/7.3/7.1.
`Cc1c(C(=O)NC2COC2)cc(-c2cc(C(C)(C)C)cc(C(C)(C)C)c2)n1S(=O)(=O)N1CCCC(C)C1` (stereo not drawn) [7/2] gave an IC50 in test [1] of 251 nM. At RORγ, the “pIC50 (FF)” value is 6.6/7.0/7.0 and the “pIC50 (REN)” value was 6.6/7.0/7.0.
